From patent US5378473A, “Transdermal administration of short or intermediate half-life benzodiazepines” (Cygnus Therapeutic Systems, priority 1993, dated 1995)

Experiment: Estimate of skin flux required to deliver therapeutically effective amounts of alprazolam transdermally
Conditions: practical skin area (less than about 100 cm^2); estimated from published pharmacokinetic data
Protocol: Based on the published pharmacokinetic data on alprazolam, applicants estimated that skin flux in the range of at least about 1 μg/cm^2 /hr would be required to deliver therapeutically effective amounts of alprazolam transdermally through a practical skin area (i.e., less than about 100 cm^2). However, when applicants measured the in vitro flux of alprazolam through skin from a propylene glycol solution, they found the flux was several-fold less than the flux required to deliver a therapeutic amount of the drug through such an area of skin. […]

In the case of Cc1nnc2n1-c1ccc(Cl)cc1C(c1ccccc1)=NC2 [Alprazolam, 8-chloro-1-methyl-6-phenyl-4H-1,2,4-triazolo(4,3-a)(1,4)benzodiazepine], the “skin flux required to deliver therapeutically effective amounts transdermally” value is reported as “at least 1 μg/cm^2 /hr”.
